Publication PMC3834941, “Pharmacokinetic Evaluation of a DSPE-PEG2000 Micellar Formulation of Ridaforolimus in Rat” (Pharmaceutics, 2012)

Assays:
[1] = parameters: method as in PMID 19228743; conditions: humans, clinical Phase I trials; cited from earlier work
[2] = In vitro release by dialysis into PBS pH 7.4, 37 °C; format: physicochemical; conditions: free drug
Method: The in vitro release of the drug from DSPE-PEG2000 micelles into PBS (pH 7.4) was done by a dialysis method. Dialysis was carried out at 37 °C under sink condition using a 10-kDa MWCO dialysis tubing (SnakeSkin®, Thermo Scientific Inc., Rockford, IL, USA). The initial volume of drug-loaded micelles in the dialysis tubing was 2 mL and the sink solution was 4 L. The PBS was changed several times per day to maintain sink conditions. After pre-determined time intervals, samples were withdrawn from the dialysis bag and analyzed by a reversed phase HPLC column (TSK-GEL® ODS-100Z, Tosoh Bioscience) at 50 °C with UV detection at 290 nm.

SMILES: CO[C@H]1C[C@@H]2CC[C@@H](C)[C@@](O)(O2)C(=O)C(=O)N2CCCC[C@H]2C(=O)O[C@H]([C@H](C)C[C@@H]2CC[C@@H](OP(C)(C)=O)[C@H](OC)C2)CC(=O)[C@H](C)/C=C(\C)[C@@H](O)[C@@H](OC)C(=O)[C@H](C)C[C@H](C)/C=C/C=C/C=C/1C [Ridaforolimus, ridaforolimus]
- half-life [1]: 45 to 52 h
- in vitro release t50% [2]: less than 20 min
- in vitro release t90% [2]: 1 h
